Tests used:
mutant myocilin = experiment: Cellular studies of mutant myocilin degradation; format: cell-based
[1] = tested on: human trabecular meshwork (HTM) cells; experiment: HTM cell lysates, intracellular Collagen I and Fibronectin (Western blot); format: cell-based
Method: (§1) HTM Treatments: Low passage number human trabecular meshwork (HTM) cells were cultured in DMEM supplemented with 10% fetal bovine serum and 1% penicillin/streptomycin. HTM cells were treated for 10 days (replaced every 2-3 days) with 100 nM dexamethasone. HTM cells were validated by expression of myocilin under these conditions.
(§2) Western and Dot Blots: Anterior eye segments and HTM cells were lysed in RIPA buffer. HTM lysates were separated by SDS-PAGE and transferred to a PVDF membrane. Lysates and culture media for dot blots were applied to a nitrocellulose membrane. Blots were blocked in 7% non-fat milk solution. Myocilin antibody was provided by W. D. Stamer. Collagen I and Fibronectin antibodies were purchased from Santa Cruz Biotechnology. Actin antibody was purchased from Sigma Aldrich (St. Louis, Mo.). Blots were developed using species specific secondary antibodies from Southern Biotech.
(§3) Quantification and Statistical Analysis: Two-tailed student's t-test and two-way ANOVA with Bonferroni's post-hoc tests were used as detailed in the figure legends. Values were considered significant if p<0.05. Graphs were generated using GraphPad Prism 5.0 analysis software or Microsoft Excel. N-value in this study is depicted as number of animals or number of eyes where indicated. Graphs are plotted as ±SEM or % CV as indicated.

[2] = tested on: ECM components (Collagen I, Fibronectin); experiment: ECM components in lysates of anterior eye sections of SIG model mice (dot blot / Western blot); format: in vivo, mouse; settings: dex & 4Br-BnIm treated group; overall not statistically significant
Description: Animal Husbandry: Mice were housed and bred at the University of South Florida Byrd Alzheimer's Institute. All animal procedures performed in this study followed the ARVO Statement for the Use of Animals in Ophthalmic and Vision Research and were approved by the University of South Florida Institutional Animal Care and Use Committee. A cohort of 35 animals from separate litters were used for this study; 20 male mice (10 WT and 10 Myoc-KO) and 15 female mice (8 WT and 7 Myoc-KO). […] Technicians performing the drug delivery and tonometry measurements were blinded for animal genotype as well as each compound and the respective vehicle treatment. […] No other treatment groups or geneotypes suffered losses. One WT animal on the Dex+4Br—BnIm study began the study with only one eye. […] 4Br—BnIm treatment dose was based on previous studies. […] The drop was allowed to sit on the eye for 1 minute before the mouse was returned to its cage. One drop of 0.1% Dexamethasone eye drops (Dexamethasone Sodium Phosphate Ophthalmic Solution USP, 0.1% Dexamethasone Phosphate Equivalent; Bauch and Lomb) or PBS (vehicle) was applied to each eye. Dexamethasone treatments were conducted at 6:30 AM, 9 AM, and 2 PM, every day. […]
Quantification and Statistical Analysis: Two-tailed student's t-test and two-way ANOVA with Bonferroni's post-hoc tests were used as detailed in the figure legends. […]

Wild-type (WT) mice = experiment: Mouse model of steroid-induced glaucoma, IOP by rebound tonometer, WT mice; format: in vivo; settings: 0.1% dexamethasone topically to the eye three times per day
Method: A cohort of 35 animals from separate litters were used for this study; 20 male mice (10 WT and 10 Myoc-KO) and 15 female mice (8 WT and 7 Myoc-KO). […] Technicians performing the drug delivery and tonometry measurements were blinded for animal genotype as well as each compound and the respective vehicle treatment. […] The drop was allowed to sit on the eye for 1 minute before the mouse was returned to its cage. One drop of 0.1% Dexamethasone eye drops (Dexamethasone Sodium Phosphate Ophthalmic Solution USP, 0.1% Dexamethasone Phosphate Equivalent; Bauch and Lomb) or PBS (vehicle) was applied to each eye. Dexamethasone treatments were conducted at 6:30 AM, 9 AM, and 2 PM, every day.
IOP Measurements: IOP levels in the mouse eye were obtained using the Icare TonoLab rebound tonometer and their guidelines were followed (Icare, Finland). Measurements were taken at LOAM to control for diurnal fluctuations in IOP levels which occur throughout the day. Mice were anesthetized with 3-4% isoflurane in oxygen once a week. After mice were sufficiently anesthetized, the mice were placed in an open restraint platform and IOP measurements were taken for each eye. […]

[3] = tested on: human trabecular meshwork (HTM) cells; experiment: HTM cell culture medium, extracellular proteins (dot blot); format: cell-based; settings: dexamethasone
Method: as §1, §2, §3

[4] = HTM cells treated with dex, 24 hours after Grp94 inhibitor treatment
[5] = HTM cells, 4Br-BnIm in the absence of dexamethasone

Structure (SMILES)	effect on toxic mutant myocilin (mutant myocilin)	intracellular Collagen I levels [1, 4]	intracellular Fibronectin levels [1, 4]	Intracellular Collagen I [1, 5]	Intracellular Fibronectin [1, 5]	Collagen I in anterior eye lysates [2]	Fibronectin in anterior eye lysates [2]	increase in IOP (Wild-type (WT) mice)	increase of extracellular myocilin [3]
COC(=O)c1c(O)cc(O)c(Cl)c1CCc1nccn1Cc1ccc(Br)cc1 [4Br—BnIm, methyl 2-(2-(1(4-bromobenzyl)-1H-imidazol-2-yl)ethyl)-3-chloro-4,6-dihydroxybenzoate]	degradation of toxic mutant myocilin	statistically significant decreases	statistically significant decreases	unchanged	unchanged	decrease in the mean values	decrease in the mean values		
C[C@@H]1C[C@H]2[C@@H]3CCC4=CC(=O)C=C[C@]4(C)[C@@]3(F)[C@@H](O)C[C@]2(C)[C@@]1(O)C(=O)CO [dexamethasone]								roughly 33%	over 500%

— US20210030719A1, “GRP94 INHIBITORS TO TREAT STEROID-INDUCED OCULAR HYPERTENSIONS AND GLAUCOMAS” (UNIVERSITY OF SOUTH FLORIDA, priority 2018, published 2021)
